pKd: −log10 of the molar value. Where two headings read alike, the source gives them in different places. Starred links: 1 amine or outer side, 2 acyl side, 3 side chain; linkers in the order of their positions; H or OH if unused. Positions of bridges follow the written chain, without caps; N, C: chain ends. Non-standard residues stand in square brackets, D forms with d. Residues, ends and D or L forms follow the SMILES beside them. Pen = CC(C)(S)[C@H](N)C(=O)O; hCys = N[C@@H](CCS)C(=O)O; Dab = NCC[C@H](N)C(=O)O; Dap = NC[C@H](N)C(=O)O; X1 = O=C(C[*:2])[*:1]; X2 = O=C(C[*:1])[*:2]

Data set [1] in a line: Evaluation of molecule stability (alkali treatment, residual rate by LC/MS). Type of data set: physicochemical. To be noted: for Stability (molecule stability, residual rate of the cyclic peptide rank): alkali treatment, residual rate by LC/MS; for Performance evaluation: Stability (residual rate of cyclic peptide after alkali treatment): 500 μM peptide aqueous solution plus equivalent of 1 M sodium hydroxide, 15° C., 3 hours, LC/MS peak area. A digest of the protocol: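 500 μM aqueous cyclic peptide mixed with an equal volume of 1 M NaOH and held 3 h at 15 °C. Residual rate is total LC/MS peak area after treatment relative to untreated (100%), using a C18 column, pH 3 ammonium formate/acetonitrile gradient, 45 °C, ESI±.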

Another data set concerns the target human integrin αvβ5 (Homo sapiens, UniProt P06756+P18084). In words: Evaluation of integrin binding property (surface plasmon resonance, Biacore 3000, immobilized cyclic peptide). A digest of the protocol:
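SPR with cyclic peptide amine-coupled via EDC/NHS to a CM5 chip, blank channel as reference. Integrin αvβ5 at 30, 100, 300 and 1,000 nM injected 10 min at 25 °C in HEPES buffer pH 7.4 with 5 mM MgCl2, 30 min buffer flow, EDTA regeneration; Kd from reference-subtracted signals, graded by category.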
(In general: In SPR one partner is held on a chip, and binding of the other changes the refractive index at the surface.)

[2] abbreviates: surface plasmon resonance, immobilized cyclic peptide, human integrin αvβ5, read-out: Binding activity (integrin binding property, dissociation constant rank).
[3] abbreviates: SPR, 25° C., HEPES buffer with 5 mM magnesium chloride, integrin 30-1,000 nM, read-out: Performance evaluation: Binding activity (dissociation constant between the cyclic peptide and human integrin αvβ5).

Chain of human integrin αvβ5 (P06756 31-1048): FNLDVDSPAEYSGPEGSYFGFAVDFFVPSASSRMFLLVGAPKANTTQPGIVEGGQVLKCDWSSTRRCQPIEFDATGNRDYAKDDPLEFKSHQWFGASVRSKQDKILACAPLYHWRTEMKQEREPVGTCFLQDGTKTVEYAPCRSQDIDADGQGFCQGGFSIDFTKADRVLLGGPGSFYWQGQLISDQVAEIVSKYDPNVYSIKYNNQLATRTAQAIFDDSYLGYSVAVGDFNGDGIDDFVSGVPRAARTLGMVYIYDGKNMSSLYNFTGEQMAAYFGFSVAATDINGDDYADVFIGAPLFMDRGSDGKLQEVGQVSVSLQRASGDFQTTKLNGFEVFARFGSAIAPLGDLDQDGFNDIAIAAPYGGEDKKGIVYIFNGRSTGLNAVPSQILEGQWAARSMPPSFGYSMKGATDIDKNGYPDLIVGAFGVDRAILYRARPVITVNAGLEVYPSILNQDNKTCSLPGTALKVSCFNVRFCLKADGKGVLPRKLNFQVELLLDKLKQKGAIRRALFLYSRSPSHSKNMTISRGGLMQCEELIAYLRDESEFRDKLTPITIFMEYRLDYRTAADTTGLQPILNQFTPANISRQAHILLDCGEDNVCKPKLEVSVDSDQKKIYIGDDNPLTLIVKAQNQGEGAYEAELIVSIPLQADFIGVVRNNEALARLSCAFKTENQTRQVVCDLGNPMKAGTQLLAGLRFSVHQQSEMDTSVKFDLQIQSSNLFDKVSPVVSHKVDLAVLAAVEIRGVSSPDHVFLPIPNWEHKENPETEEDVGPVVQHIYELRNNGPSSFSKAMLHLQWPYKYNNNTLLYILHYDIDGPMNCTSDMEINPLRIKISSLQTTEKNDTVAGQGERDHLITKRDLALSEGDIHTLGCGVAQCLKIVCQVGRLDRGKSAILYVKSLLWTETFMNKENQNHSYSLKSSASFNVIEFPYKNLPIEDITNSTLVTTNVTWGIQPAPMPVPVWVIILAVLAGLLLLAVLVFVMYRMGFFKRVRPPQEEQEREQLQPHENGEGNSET
Chain of human integrin αvβ5 (P18084 24-799): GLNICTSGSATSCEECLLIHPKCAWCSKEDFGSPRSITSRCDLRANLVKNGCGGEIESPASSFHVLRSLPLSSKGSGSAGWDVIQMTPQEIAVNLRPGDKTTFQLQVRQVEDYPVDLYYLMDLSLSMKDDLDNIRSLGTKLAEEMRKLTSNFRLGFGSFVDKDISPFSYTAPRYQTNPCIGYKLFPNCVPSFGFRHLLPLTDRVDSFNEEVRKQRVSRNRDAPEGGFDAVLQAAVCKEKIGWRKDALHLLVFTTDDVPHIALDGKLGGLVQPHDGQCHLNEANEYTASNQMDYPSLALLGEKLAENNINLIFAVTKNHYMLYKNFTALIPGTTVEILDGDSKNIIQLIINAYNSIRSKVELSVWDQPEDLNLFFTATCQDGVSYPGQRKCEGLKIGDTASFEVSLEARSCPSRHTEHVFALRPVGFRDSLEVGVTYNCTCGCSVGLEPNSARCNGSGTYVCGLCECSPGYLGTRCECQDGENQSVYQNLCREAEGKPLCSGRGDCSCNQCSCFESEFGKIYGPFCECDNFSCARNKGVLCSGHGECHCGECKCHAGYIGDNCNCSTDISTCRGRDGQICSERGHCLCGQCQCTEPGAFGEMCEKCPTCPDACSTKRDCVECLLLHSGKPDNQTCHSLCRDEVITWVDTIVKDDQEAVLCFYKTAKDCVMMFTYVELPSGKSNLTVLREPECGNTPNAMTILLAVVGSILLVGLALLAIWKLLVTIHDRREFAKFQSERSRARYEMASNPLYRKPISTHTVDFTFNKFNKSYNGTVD

For `CC[C@H](C)[C@@H]1NC(=O)[C@@H](NC(=O)CNC(=O)[C@H](CCCCN)NC(=O)[C@H](CCCCN)NC(=O)[C@@H](N)CCCCN)CNC(=O)CSC(C)(C)[C@@H](C(=O)N[C@@H](C)C(=O)O)NC(=O)[C@H](CCCNC(=N)N)NC(=O)[C@H](Cc2ccccc2)NC(=O)[C@H]([C@@H](C)O)NC(=O)[C@H](CC(=O)O)NC(=O)CNC(=O)[C@H](CCCNC(=N)N)NC(=O)[C@@H]2CCCN2C1=O` [Cyclic peptide 132, KKKG(Dap(acetyl))IPRGDTFR-(Pen)-A] (H-KKKG[Dap]IPRGDTFR[Pen]A-OH; linker 5-14 via X1), the “Stability (molecule stability, residual rate of the cyclic peptide rank)” value in data set [1] is listed as “A (The residual rate of the cyclic peptide is 70% or more.)”. In addition, on human integrin αvβ5 (setting [2]), the pKd is greater than 7.30.
Take `CC[C@H](C)[C@@H]1NC(=O)[C@@H](NC(=O)[C@H](CCCCN)NC(=O)[C@H](CCCCN)NC(=O)[C@@H](N)CCCCN)CCSCC(=O)NCC[C@@H](C(=O)NCC(=O)O)NC(=O)[C@H](CCCNC(=N)N)NC(=O)[C@H](Cc2ccccc2)NC(=O)[C@H](CC(N)=O)NC(=O)[C@H](CC(=O)O)NC(=O)CNC(=O)[C@H](CCCNC(=N)N)NC(=O)[C@@H]2CCCN2C1=O` [Cyclic peptide 4, KKK-(Hcy)-IPRGDNFR(Dab(acetyl))G] (H-KKK[hCys]IPRGDNFR[Dab]G-OH; linker 4-13 via X2): the “Performance evaluation: Stability (residual rate of cyclic peptide after alkali treatment)” value in data set [1] is “A (The residual rate of the cyclic peptide is 70% or more.)”. For the same molecule, on human integrin αvβ5 (setting [3]), the pKd was greater than 7.30.
Consider `CC[C@H](C)[C@@H]1NC(=O)[C@@H](NC(=O)[C@H](CCCCN)NC(=O)[C@H](CCCCN)NC(=O)[C@@H](N)CCCCN)CCSCC(=O)NCC[C@@H](C(=O)O)NC(=O)[C@H](C)NC(=O)[C@H](Cc2ccccc2)NC(=O)[C@H](CO)NC(=O)[C@H](CC(=O)O)NC(=O)CNC(=O)[C@H](CCCNC(=N)N)NC(=O)[C@@H]2CCCN2C1=O` [Cyclic peptide 101, KKK-(Hcy)-IPRGDSFA(Dab(acetyl))] (H-KKK[hCys]IPRGDSFA[Dab]-OH; linker 4-13 via X2), for which, in data set [1], the “Stability (molecule stability, residual rate of the cyclic peptide rank)” value was “A (The residual rate of the cyclic peptide is 70% or more.)”. The pKd on human integrin αvβ5 (setting [2]) was greater than 7.30.
Turning to `C[C@@H]1NC(=O)[C@H](Cc2ccccc2)NC(=O)[C@H](CO)NC(=O)[C@H](CC(=O)O)NC(=O)CNC(=O)[C@H](CCCNC(=N)N)NC(=O)[C@@H]2CCCN2C(=O)[C@H]([C@@H](C)O)NC(=O)[C@@H](NC(=O)[C@H](CCCCN)NC(=O)[C@H](CCCCN)NC(=O)[C@@H](N)CCCCN)CCSCC(=O)NCC[C@@H](C(=O)O)NC1=O` [Cyclic peptide 156, KKK-(Hcy)-TPRGDSFA(Dab(acetyl))] (H-KKK[hCys]TPRGDSFA[Dab]-OH; linker 4-13 via X2), the “Stability (molecule stability, residual rate of the cyclic peptide rank)” value in data set [1] is recorded as “A (The residual rate of the cyclic peptide is 70% or more.)”. Further, at human integrin αvβ5 (setting [2]), the pKd is 7.00 to 7.30.
`CC(C)[C@@H]1NC(=O)[C@@H](NC(=O)[C@H](CCCCN)NC(=O)[C@H](CCCCN)NC(=O)[C@@H](N)CCCCN)CCSCC(=O)NCC[C@@H](C(=O)O)NC(=O)[C@H](C)NC(=O)[C@H](Cc2ccccc2)NC(=O)[C@H]([C@@H](C)O)NC(=O)[C@H](CC(=O)O)NC(=O)CNC(=O)[C@H](CCCNC(=N)N)NC(=O)[C@H](CO)NC1=O` [Cyclic peptide 149, KKK-(Hcy)-VSRGDTFA(Dab(acetyl))] (H-KKK[hCys]VSRGDTFA[Dab]-OH; linker 4-13 via X2): the “Stability (molecule stability, residual rate of the cyclic peptide rank)” value in data set [1] is “A (The residual rate of the cyclic peptide is 70% or more.)”. Moreover, on human integrin αvβ5 (setting [2]), the pKd is greater than 7.30.
As to `C[C@H](NC(=O)[C@H](CCCCN)NC(=O)[C@H](CCCCN)NC(=O)[C@@H](N)CCCCN)C(=O)N[C@H]1CCSCC(=O)NCC[C@@H](C(=O)N[C@@H](CC(=O)O)C(=O)O)NC(=O)[C@H](CCCNC(=N)N)NC(=O)[C@H](Cc2ccccc2)NC(=O)[C@H](CC(N)=O)NC(=O)[C@H](CC(=O)O)NC(=O)CNC(=O)[C@H](CCCNC(=N)N)NC(=O)[C@@H]2CCCN2C(=O)[C@H](CCC(=O)O)NC1=O` [Cyclic peptide 34, KKKA-(Hcy)-EPRGDNFR(Dab(acetyl))D] (H-KKKA[hCys]EPRGDNFR[Dab]D-OH; linker 5-14 via X2), the “Performance evaluation: Stability (residual rate of cyclic peptide after alkali treatment)” value in data set [1] is recorded as “A (The residual rate of the cyclic peptide is 70% or more.)”. Besides, on human integrin αvβ5 (setting [3]), the pKd is greater than 7.30.
With `CC[C@H](C)[C@@H]1NC(=O)[C@@H](NC(=O)[C@H](C)NC(=O)[C@H](CCCCN)NC(=O)[C@H](CCCCN)NC(=O)[C@@H](N)CCCCN)CCSCC(=O)NCC[C@@H](C(=O)N[C@@H](C)C(=O)O)NC(=O)[C@H]([C@@H](C)O)NC(=O)[C@H](Cc2ccccc2)NC(=O)[C@H]([C@@H](C)O)NC(=O)[C@H](CC(=O)O)NC(=O)CNC(=O)[C@H](CCCNC(=N)N)NC(=O)[C@@H]2CCCN2C1=O` [Cyclic peptide 82, KKKA-(Hcy)-IPRGDTFT(Dab(acetyl))A] (H-KKKA[hCys]IPRGDTFT[Dab]A-OH; linker 5-14 via X2), in data set [1], the “Performance evaluation: Stability (residual rate of cyclic peptide after alkali treatment)” value is on record as “A (The residual rate of the cyclic peptide is 70% or more.)”. Also, the pKd at human integrin αvβ5 (setting [3]) is 7.00 to 7.30.
`CC[C@H](C)[C@@H]1NC(=O)[C@@H](NC(=O)[C@H](C)NC(=O)[C@H](CCCCN)NC(=O)[C@H](CCCCN)NC(=O)[C@@H](N)CCCCN)CCSCC(=O)NCC[C@@H](C(=O)N[C@@H](C)C(=O)O)NC(=O)[C@H](CCCNC(=N)N)NC(=O)[C@H](Cc2ccccc2)NC(=O)[C@H]([C@@H](C)O)NC(=O)[C@H](CC(=O)O)NC(=O)CNC(=O)[C@H](CCCNC(=N)N)NC(=O)[C@H](CO)NC1=O` [Cyclic peptide 77, KKKA-(Hcy)-ISRGDTFR(Dab(acetyl))A] (H-KKKA[hCys]ISRGDTFR[Dab]A-OH; linker 5-14 via X2): the “Performance evaluation: Stability (residual rate of cyclic peptide after alkali treatment)” value in data set [1] was “A (The residual rate of the cyclic peptide is 70% or more.)”. Further, on human integrin αvβ5 (setting [3]), the pKd is greater than 7.30.
For `C[C@H](NC(=O)[C@@H]1CCNC(=O)CSCC[C@H](NC(=O)[C@H](C)NC(=O)[C@H](CCCCN)NC(=O)[C@H](CCCCN)NC(=O)[C@@H](N)CCCCN)C(=O)N[C@@H](CCC(=O)O)C(=O)N2CCC[C@H]2C(=O)N[C@@H](CCCNC(=N)N)C(=O)NCC(=O)N[C@@H](CC(=O)O)C(=O)N[C@@H](CC(N)=O)C(=O)N[C@@H](Cc2ccc(O)cc2)C(=O)N[C@@H](CCCNC(=N)N)C(=O)N1)C(=O)O` [Cyclic peptide 41, KKKA-(Hcy)-EPRGDNYR(Dab(acetyl))A] (H-KKKA[hCys]EPRGDNYR[Dab]A-OH; linker 5-14 via X2), in data set [1], the “Performance evaluation: Stability (residual rate of cyclic peptide after alkali treatment)” value is recorded as “A (The residual rate of the cyclic peptide is 70% or more.)”. For the same molecule, the pKd on human integrin αvβ5 (setting [3]) was 7.00 to 7.30.
Take `CC(C)[C@@H]1NC(=O)[C@@H](NC(=O)[C@H](CCCCN)NC(=O)[C@H](CCCCN)NC(=O)[C@@H](N)CCCCN)CCSCC(=O)NCC[C@@H](C(=O)O)NC(=O)CNC(=O)[C@H](Cc2ccccc2)NC(=O)[C@H]([C@@H](C)O)NC(=O)[C@H](CC(=O)O)NC(=O)CNC(=O)[C@H](CCCNC(=N)N)NC(=O)[C@@H]2CCCN2C1=O` [Cyclic peptide 152, KKK-(Hcy)-VPRGDTFG(Dab(acetyl))] (H-KKK[hCys]VPRGDTFG[Dab]-OH; linker 4-13 via X2): the “Stability (molecule stability, residual rate of the cyclic peptide rank)” value in data set [1] was “A (The residual rate of the cyclic peptide is 70% or more.)”. Also, the pKd at human integrin αvβ5 (setting [2]) is greater than 7.30.
